Values joined by “and” are separate entries in the source; they are usually repeats but may differ in a detail not shown here. Equal values may be shown once. Ends that are not written are not given here.
Assays:
T98G GBM cells [1] = test: CellTiter-Blue cell viability assay in T98G cells; settings: read-out: EC50 (μM) of ATF-5-Derived Polypeptides in Cancer Cells, T98G, 72 hours
Protocol: (§3) T98G cells were set at a density of 2×10^3/well in 200 μL of RPMI+1.5% fetal bovine serum (FBS) in black-walled Nunc™ MicroWell™ 96-Well Optical-Bottom Plates with Polymer Base.
(§4) On day −1, adherent T98G cells were washed of complete media (RPMI+10% FBS) with 6 mL Dulbecco's Phosphate Buffered Saline (DPBS), and dissociated from T25 Nunclon™ Delta flask with 2 mL trypsin at room temperature. Trypsin was quenched with 6 mL complete media, and cells were resuspended in fresh complete media at a concentration of 1×10^6 cells/mL. Cells were then adjusted to a concentration of 1×10^4 cells/mL in RPMI+1.5% FBS, and 200 μL of culture was added to each well (B2 to G11) of a Nunc™ 96-well Flat Bottom Black Polystyrol Clear Bottom plate to a final cell concentration of 2×10^3 cells/well. Cells were set in an incubator at 37° C. and 5% CO2 with humidity for 24 hours.
(§5) On day 0, 100 μL of media was removed from each well.
(§6) On day 3, media was removed from wells, and wells were washed with 100 μL DPBS. Cells were resuspended in 100 μL RPMI+10% FBS. CellTiter-Blue® Cell Viability Assay (Promega Corp., Madison, Wis.) was performed by adding 20 μL of CellTiter-Blue® reagent to each well. Plates were returned to the incubator at 37° C. and 5% CO2 with humidity for 1.5-2 hours. CellTiter-Blue® assay results were read by Eppendorf PlateReader AF2200 at Ex. 535 nm/Em. 595 nm according to manufacturer's instructions. Data is presented as % Viability. Cell viability was calculated as (Sample value/Buffer control value)×100. EC50 values were calculated using GraphPad Prism v.7 XML.

neoplastic cells = settings: systemically administered; cited from earlier work
U87 cells [2] = test: Annexin V/PI cell viability assay in U87 cells; format: cell-based; settings: 48-hour incubation, read-out: EC50 (μM) of ATF-5-Derived Polypeptides in Cancer Cells, U87
Protocol: (§1) ST-3, reconstituted at a concentration of 10 mg/mL in 20 mM His, pH 7.5, was added to each well at a volume of 50 μL to a final concentration range of 0-80 μM. Cells were incubated with ST-3 for 48 hours at 37° C. Cell viability was quantified by flow cytometry using an Annexin V FITC apoptosis detection kit from Abcam. Briefly, cells were washed with PBS and resuspended in 1× assay buffer containing Annexin V FITC and propidium iodide (PI). Annexin V detects apoptotic cells, and PI stains dead cells. After staining, apoptotic cells show green fluorescence, dead cells show red and green fluorescence, and live cells show little or no fluorescence. Cells were selected for analysis based on forward scatter (FSC) vs. side scatter (SSC), and analyzed by BD Accuri C6 Plus flow cytometer to detect Annexin V-FITC binding (Ex=488 nm; Em=530 nm) using FITC signal detector and PI staining by the phycoerythrin emission signal detector. Percentage of Annexin V^low and PI^low were quantified and presented as % Viability.
(§2) Alternatively, adherent U251 or U87 cells were set at a density of 3.5×10^3 cells/well in 150 μL of media on day −1. On day 0, media was removed and replenished with 150 μL of fresh media, and cells were treated with ST-3 as described. […] Cell viability was determined as described above for suspension cells.

[3] = tested on: HL60 promyelocytic leukemia (PML) cells; test: Annexin V/PI cell viability assay in HL60 cells; format: cell-based, human; settings: for EC50: HL60, Annexin V/PI viability, 48 hours, read-out: EC50 (μM) of ATF-5-Derived Polypeptides in Cancer Cells, HL60
Protocol: as §1

U251 GBM cells = test: Annexin V/PI cell viability assay in U251 cells; format: cell-based; settings: 48-hour incubation, read-out: EC50 (μM) of ATF-5-Derived Polypeptides in Cancer Cells, U251
Protocol: as §1, §2

T98G GBM cells [4] = tested on: T98G GBM cells
Protocol: as §3, §4, §5, §6

U87 cells [5] = test: Apo-ONE caspase 3/7 activation assay in U87 glioblastoma cells; format: cell-based
Protocol: Activation of caspase enzymes occurs in the early stages of apoptosis. In this Example, we investigated the effect on caspase activation of ST-3 in combination with the Bcl-2 inhibitor ABT-263 (Navitoclax). U87 cells were prepared as described in Example 2 for T98G cells. Lyophilized ST-3 was freshly reconstituted in Tris Buffer at a concentration of 5 mg/mL, and adjusted to a working concentration of 200 μM. ST-3 was added to cells in 100 μL Tris Buffer at a final concentration range of 0-20 μM. […] Plates were incubated at ambient temperature in the dark for 1.5-2 hours. Fluorescence was recorded by Eppendorf PlateReader AF2200 at Ex. 485 nm/Em. 527 nm.

| Compound | EC50 (T98G GBM cells [1]) | EC50 (U87 cells [2]) | EC50 [3] | EC50 (U251 GBM cells) | also measured |
| --- | --- | --- | --- | --- | --- |
| RQIKIWFQNRRMKWKKLEQRAEELARENEELLEKEAEELEQENAELEGECQGLEARNRELRERAESV [ST-2] | > 200 µM | > 200 µM | > 200 µM | > 200 µM | blood-brain barrier crossing, cell entry and apoptosis of neoplastic cells (neoplastic cells): can cross the blood-brain barrier, enter cells, and selectively trigger the apoptotic death of neoplastic cells |
| RQIKIWFQNRRMKWKKLEGECQGLEARNRELKERAESV [ST-3] | 69 µM | 45 µM | 16 µM | 42 µM | cytotoxic activity compared to ST-2 (T98G GBM cells [4]): unexpectedly superior cytotoxic activity over ST-2 |
| YGRKKRRQRRLEGECQGLEARNRELKERAESV [ATF5 Polypeptide with Tat CPP] |  |  |  |  | cytotoxic activity ([3]; HL-60 cell viability assay): has cytotoxic activity |
| CN[C@@H]1C[C@H]2O[C@@](C)([C@@H]1OC)n1c3ccccc3c3c4c(c5c6ccccc6n2c5c31)C(=O)NC4 [Positive Control, staurosporine] |  |  |  |  | % Caspase Activation, positive control (U87 cells [5]; staurosporine 10 μM, reference set to 100): 100% |
| CC1(C)CCC(c2ccc(Cl)cc2)=C(CN2CCN(c3ccc(C(=O)NS(=O)(=O)c4ccc(N[C@H](CCN5CCOCC5)CSc5ccccc5)c(S(=O)(=O)C(F)(F)F)c4)cc3)CC2)C1 [ABT-263, ABT-263 (Navitoclax)] |  |  |  |  | % Caspase Activation, ABT-263 alone (U87 cells [5]; ST-3 0 μM, ABT-263 0.5 μM, % of positive control): 15.5% and 15.32% |
